Test results taken from patent US6737383B1, “Herbicidal oxadiazolidines” (priority 1999, dated 2004).

What was measured:
[1] = tested on: cocklebur; experiment: Test B pre/postemergence cocklebur; assay type: in vivo, Xanthium strumarium
Summary of the method: (§1)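 Herbicidal effect was estimated by eye on a ten-point control scale after plants spent twelve to sixteen days in a greenhouse following soil or foliar treatment. Foliar sprays targeted plants at one to four leaves; all doses were formulated in a non-phytotoxic solvent with surfactant.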

[2] = tested on: blackgrass; experiment: Test B pre/postemergence blackgrass; assay type: in vivo, Alopecurus myosuroides
Summary of the method: as §1

[3] = tested on: giant foxtail; experiment: Test B pre/postemergence giant foxtail; assay type: in vivo, Setaria faberii
Summary of the method: as §1

[4] = tested on: rice; experiment: Test B flood test rice; assay type: in vivo, Oryza sativa; settings: Pre-emergence
Summary of the method: (§2)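 Read-out is a visual response score from 0 (no effect) to 10 (complete control), assigned by comparison with untreated controls. Treatment was applied at the 2-leaf stage, and plants stayed in the greenhouse for twelve to sixteen days before scoring.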

[5] = tested on: sugar beet; experiment: Test B pre/postemergence sugar beet; assay type: in vivo, Beta vulgaris
Summary of the method: as §1

[6] = tested on: morningglory; experiment: Test B pre/postemergence morningglory; assay type: in vivo, Ipomoea hederacea
Summary of the method: as §1

[7] = tested on: duck salad; experiment: Test B flood test duck salad; assay type: in vivo, Heteranthera limosa; settings: Pre-emergence
Summary of the method: as §2

[8] = tested on: rape; experiment: Test B pre/postemergence rape; assay type: in vivo, Brassica napus
Summary of the method: as §1

[9] = tested on: bamyardgrass; experiment: Test B flood test barnyardgrass; assay type: in vivo, Echinochloa crus-galli; settings: Pre-emergence
Summary of the method: as §2

[10] = tested on: corn; experiment: Test B pre/postemergence corn; assay type: in vivo, Zea mays
Summary of the method: as §1

[11] = tested on: purple nutsedge; experiment: Test B pre/postemergence purple nutsedge; assay type: in vivo, Cyperus rotundus
Summary of the method: as §1

[12] = tested on: velvetleaf; experiment: Test B pre/postemergence velvetleaf; assay type: in vivo, Abutilon theophrasti
Summary of the method: as §1

[13] = tested on: bedstraw; experiment: Test B pre/postemergence bedstraw; assay type: in vivo, Galium aparine
Summary of the method: as §1

[14] = tested on: pigweed; experiment: Test B pre/postemergence pigweed; assay type: in vivo, Amaranthus retroflexus
Summary of the method: as §1

[15] = tested on: surinam grass; experiment: Test B pre/postemergence surinam grass; assay type: in vivo, Brachiaria decumbens
Summary of the method: as §1

[16] = Postemergence, Rate 125 g/ha, scale 0 to 10, 0 is no effect, 10 is complete control
[17] = Preemergence, Rate 62 g/ha, scale of 0 to 10 where 0 is no effect and 10 is complete control
[18] = Preemergence, Rate 250 g/ha, scale of 0 to 10 where 0 is no effect and 10 is complete control
[19] = Preemergence, Rate 500 g/ha, scale of 0 to 10 where 0 is no effect and 10 is complete control
[20] = Rate 62 g/ha, Postemergence, scale 0 to 10 (0 no effect, 10 complete control)
[21] = Rate 500 g/ha, Postemergence, scale 0 to 10, 0 no effect, 10 complete control
[22] = Rate 250 g/ha, Postemergence, scale of 0 to 10 where 0 is no effect and 10 is complete control
[23] = Rate 1000 g/ha, scale 0 to 10 (0 no effect, 10 complete control)
[24] = Rate 125 g/ha, flood test species, scale 0 to 10 where 0 is no effect and 10 is complete control
[25] = Rate 250 g/ha, flood-test species, scale 0 to 10, 0 is no effect, 10 is complete control
[26] = Rate 500 g/ha, flood test species, scale 0 to 10 (0 no effect, 10 complete control)

CC(C)N(C(=O)n1oc(=O)n(-c2ccc3ccccc3c2)c1=O)c1ccc(Cl)cc1 [Compound 333]
2: Giant foxtail plant response rating [3, 19]
0: Plant response rating, Cocklebur [1, 16] | Cocklebur plant response rating [1, 17] | Cocklebur plant response rating (0 to 10 scale) ([1]; Preemergence, Rate 125 g/ha) | Cocklebur plant response rating [1, 18] | Cocklebur plant response rating [1, 19] | Cocklebur plant response rating [1, 20] | Plant response rating, Cocklebur [1, 21] | Plant response rating, Blackgrass [2, 16] | Blackgrass plant response rating [2, 17] | Blackgrass plant response rating (0 to 10 scale) ([2]; Preemergence, Rate 125 g/ha) | Blackgrass plant response rating [2, 18] | Blackgrass plant response rating [2, 19] | Blackgrass plant response rating [2, 20] | Plant response rating, Blackgrass [2, 22] | Plant response rating, Blackgrass [2, 21] | Plant response rating, Giant foxtail [3, 16] | Giant foxtail plant response rating [3, 17] | Giant foxtail plant response rating (0 to 10 scale) ([3]; Preemergence, Rate 125 g/ha) | Giant foxtail plant response rating [3, 18] | Giant foxtail plant response rating [3, 20] | Plant response rating, Giant foxtail [3, 21] | Rice plant response rating [4, 23] | Rice plant response rating [4, 24] | Rice plant response rating [4, 25] | Rice plant response rating [4, 26] | Plant response rating, Sugarbeets [5, 16] | Sugarbeets plant response rating [5, 17] | Sugarbeets plant response rating (0 to 10 scale) ([5]; Preemergence, Rate 125 g/ha) | Sugarbeets plant response rating [5, 18] | Sugarbeets plant response rating [5, 19] | Sugarbeets plant response rating [5, 20] | Plant response rating, Sugarbeets [5, 21] | Plant response rating, Morningglory [6, 16] | Morningglory plant response rating [6, 17] | Morningglory plant response rating (0 to 10 scale) ([6]; Preemergence, Rate 125 g/ha) | Morningglory plant response rating [6, 18] | Morningglory plant response rating [6, 19] | Morningglory plant response rating [6, 20] | Plant response rating, Morningglory [6, 21] | Ducksalad plant response rating [7, 23] | Ducksalad plant response rating [7, 24] | Ducksalad plant response rating [7, 25] | Ducksalad plant response rating [7, 26] | Plant response rating, Rape [8, 16] | Rape plant response rating [8, 17] | Rape plant response rating (0 to 10 scale) ([8]; Preemergence, Rate 125 g/ha) | Rape plant response rating [8, 18] | Rape plant response rating [8, 19] | Rape plant response rating [8, 20] | Plant response rating, Rape [8, 21] | Barnyardgrass plant response rating [9, 23] | Barnyardgrass plant response rating [9, 24] | Barnyardgrass plant response rating [9, 25] | Barnyardgrass plant response rating [9, 26] | Plant response rating, Corn [10, 16] | Corn plant response rating [10, 17] | Corn plant response rating (0 to 10 scale) ([10]; Preemergence, Rate 125 g/ha) | Corn plant response rating [10, 18] | Corn plant response rating [10, 19] | Corn plant response rating [10, 20] | Plant response rating, Corn [10, 21] | Plant response rating, Nutsedge [11, 16] | Nutsedge plant response rating [11, 17] | Nutsedge plant response rating (0 to 10 scale) ([11]; Preemergence, Rate 125 g/ha) | Nutsedge plant response rating [11, 18] | Nutsedge plant response rating [11, 19] | Nutsedge plant response rating [11, 20] | Plant response rating, Nutsedge [11, 21] | Plant response rating, Velvetleaf [12, 16] | Velvetleaf plant response rating [12, 17] | Velvetleaf plant response rating (0 to 10 scale) ([12]; Preemergence, Rate 125 g/ha) | Velvetleaf plant response rating [12, 18] | Velvetleaf plant response rating [12, 19] | Velvetleaf plant response rating [12, 20] | Plant response rating, Velvetleaf [12, 21] | Plant response rating, Bedstraw [13, 16] | Bedstraw plant response rating [13, 17] | Bedstraw plant response rating (0 to 10 scale) ([13]; Preemergence, Rate 125 g/ha) | Bedstraw plant response rating [13, 18] | Bedstraw plant response rating [13, 19] | Bedstraw plant response rating [13, 20] | Plant response rating, Bedstraw [13, 22] | Plant response rating, Bedstraw [13, 21] | Plant response rating, Redroot pigweed [14, 16] | Redroot pigweed plant response rating [14, 17] | Redroot pigweed plant response rating (0 to 10 scale) ([14]; Preemergence, Rate 125 g/ha) | Redroot pigweed plant response rating [14, 18] | Redroot pigweed plant response rating [14, 19] | Redroot pigweed plant response rating [14, 20] | Plant response rating, Redroot pigweed [14, 21] | Plant response rating, B. signalgrass [15, 16] | B. signalgrass plant response rating [15, 17] | B. signalgrass plant response rating (0 to 10 scale, 0 is no effect, 10 is complete control) ([15]; Preemergence, Rate 125 g/ha) | B. signalgrass plant response rating [15, 18] | B. signalgrass plant response rating [15, 19] | B. signalgrass plant response rating [15, 20] | Plant response rating, B. signalgrass [15, 22] | Plant response rating, B. signalgrass [15, 21]
